The values that follow come from patent publication EP4781984A1 (Beyang Therapeutics Co., Ltd., priority 2023, dated 2025).

One data set addresses T1, EGFR (Homo sapiens, UniProt P00533).
T1 construct: purchased Carna 08-115
Briefly: Kinase inhibitory activity, Mobility Shift Assay (EGFR). The data set is classed as biochemical. The method in brief: (§1)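 Each kinase pre-incubated 10 min at room temperature, then FAM-labelled peptide with MgCl2 and ATP added; reaction at 28 °C for kinase-dependent times before stop. Substrate conversion read by mobility shift; IC50 from a four-parameter fit of % inhibition against log concentration.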

A further data set addresses T2, VEGFR2 (Homo sapiens, UniProt P35968).
T2 construct: purchased Carna 08-191
Briefly: Kinase inhibitory activity, Mobility Shift Assay (VEGFR2). The data set is classed as biochemical. The procedure, abridged: as §1

The nature of data set [1]: Thermodynamic solubility test. The data set is classed as physicochemical. To be noted: buffer solution, aqueous buffer, thermodynamic from solid. The procedure, abridged: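 Samples sonicated 10 min, shaken 8 h at room temperature, re-sonicated and centrifuged at 13000 rpm for 15 min. Supernatant recentrifuged and analysed by LC-MS, with concentrations quantified against a 3–5 point calibration curve.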

Another data set deals with melanin. Briefly: Compound binding to melanin. To be noted: cuttlefish (Sepia officinalis), melanin suspension (1 mg/mL), percentage of free drug (not bound to melanin), 2 µM compound, melanin 1 mg/mL in PBS pH 7.4, 37°C. The data set is classed as in vitro ADME. The method in brief:
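Compound at 2 µM final incubated with 1 mg/mL Sepia melanin in PBS pH 7.4, 37°C, 2 hours with shaking; blank in PBS with 0.1% BSA. Supernatant concentration by LC-MS/MS. Fb = 100 − (Ctest/Ccontrol) × 100%.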

The target in data set [2] is T3, VEGFR2 autophosphorylation (pVEGFR2) in HUVEC cells (Homo sapiens, UniProt P35968).
T3 construct: endogenous in cells; host or cells: HUVEC
T3 sequence (P35968 20-1356): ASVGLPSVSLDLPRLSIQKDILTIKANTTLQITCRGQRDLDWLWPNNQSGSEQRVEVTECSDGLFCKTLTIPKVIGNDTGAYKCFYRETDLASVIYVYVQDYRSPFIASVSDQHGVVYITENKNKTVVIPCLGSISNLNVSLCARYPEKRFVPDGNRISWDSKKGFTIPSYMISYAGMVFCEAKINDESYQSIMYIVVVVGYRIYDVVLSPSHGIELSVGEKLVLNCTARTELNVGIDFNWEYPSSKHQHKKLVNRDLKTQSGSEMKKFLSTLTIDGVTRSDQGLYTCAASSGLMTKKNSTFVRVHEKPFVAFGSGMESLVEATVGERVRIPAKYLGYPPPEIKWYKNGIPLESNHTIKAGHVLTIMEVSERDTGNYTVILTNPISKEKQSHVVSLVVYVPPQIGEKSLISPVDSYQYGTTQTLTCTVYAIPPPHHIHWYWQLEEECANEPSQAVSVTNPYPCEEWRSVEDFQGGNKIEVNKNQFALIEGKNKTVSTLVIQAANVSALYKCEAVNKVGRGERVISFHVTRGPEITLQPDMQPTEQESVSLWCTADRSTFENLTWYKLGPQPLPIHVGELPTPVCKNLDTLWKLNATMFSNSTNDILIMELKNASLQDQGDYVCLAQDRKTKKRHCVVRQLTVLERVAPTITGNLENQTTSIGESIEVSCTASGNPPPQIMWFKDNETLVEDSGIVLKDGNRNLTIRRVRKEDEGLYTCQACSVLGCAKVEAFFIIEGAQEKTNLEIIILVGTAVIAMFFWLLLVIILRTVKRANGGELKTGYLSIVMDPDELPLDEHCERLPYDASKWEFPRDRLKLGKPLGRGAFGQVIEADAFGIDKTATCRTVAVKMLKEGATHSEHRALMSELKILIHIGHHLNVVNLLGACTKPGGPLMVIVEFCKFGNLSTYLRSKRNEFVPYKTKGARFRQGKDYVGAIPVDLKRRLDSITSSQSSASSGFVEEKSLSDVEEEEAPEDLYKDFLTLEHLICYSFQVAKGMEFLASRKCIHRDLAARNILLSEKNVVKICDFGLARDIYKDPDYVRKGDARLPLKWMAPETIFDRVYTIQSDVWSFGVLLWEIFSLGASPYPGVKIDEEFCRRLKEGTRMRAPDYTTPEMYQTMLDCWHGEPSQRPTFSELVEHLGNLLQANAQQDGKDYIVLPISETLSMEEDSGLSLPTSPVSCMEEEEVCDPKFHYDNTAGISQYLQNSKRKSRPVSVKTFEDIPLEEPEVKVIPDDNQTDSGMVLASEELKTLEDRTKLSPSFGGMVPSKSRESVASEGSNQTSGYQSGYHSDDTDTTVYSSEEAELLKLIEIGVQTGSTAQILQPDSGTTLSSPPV
Briefly: Inhibition of VEGF-induced VEGFR2 phosphorylation in HUVEC cells (ELISA). The data set is classed as cell-based. The conditions noted are these: 50 ng/mL human VEGF, compound 1 hour. An excerpt: Assay for Compound Inhibition of VEGFR2 Phosphorylation in HUVEC Cells
VEGF is a potent growth factor that promotes angiogenesis and vascular permeability. Vascular endothelial growth factor receptor 2 (VEGFR2) is the primary receptor for VEGF-induced endothelial cell signaling. Upon ligand binding, VEGFR2 undergoes autophosphorylation and is activated. The primary function from VEGFR2 signaling is to induce blood vessel formation during development and after tissue injury, and to bypass blocked vessels. Pathologically, VEGF and VEGFR2 are involved in tumor angiogenesis and vascular leakage. They are considered major players in many different cancers and ocular diseases accompanied by pathological neovascularization. This assay uses ELISA to measure the compound's ability to inhibit VEGF-induced VEGFR2 autophosphorylation (pVEGFR2) in HUVEC cells. Table 7. Reagents and Instruments
Before cell seeding, cells reached 60%-80% confluency in cell culture flasks. The cell suspension was diluted with pre-warmed complete medium to 4.5×10^6 cells/mL. 80 microliters of cell suspension was added to all wells of a 96-well cell plate (Corning-3599); incubated overnight at 37°C and 5% CO2. Compound powder was dissolved in DMSO to 10 mM and stored in a nitrogen cabinet. Compound dilution master plate: In a 96-well V-bottom plate (Axygen- WIPP02280), reference compound Ponatinib or test compound concentrations were added, starting from 5 mM (5 microliters of 10 mM compound solution plus 5 microliters DMSO) with 3-fold serial dilutions for a total of 8 concentration points. […] 20 microliters of diluted compound was transferred from the intermediate plate to the cell plate. The cell plate was then incubated at 37°C and 5% CO2 for 1 hour. […] It was gently shaken for 30 seconds, and the absorbance was measured within 30 minutes using a SpectraMax® 340 PC 384 Absorbance Microplate Reader, reading the optical density value at 450 nm. […]
All other values are expressed as a percentage of these controls (inhibition rate). […]

Data set [3] can be described thus: Ophthalmic formulations based on polyethylene glycol series vehicles: composition and state (Example 7). The data set is classed as physicochemical. The conditions noted are these: Table 15: 10 mg/mL; Polyethylene glycol 400 10, Hydroxypropyl-β-cyclodextrin 10, Gellan Gum Gelrite 0.3, Poloxamer 188 1, Tris solution and Citric acid. An excerpt: In the following ophthalmic formulation preparation examples, "solution" refers to a clear, transparent liquid without visible insoluble matter. "Near-clear solution" refers to a liquid that appears close to a solution upon visual observation but may contain a small amount of insoluble particles or have a slightly opaque color. "Suspension" refers to a liquid that is visibly turbid or opaque. "Gel" refers to a completely or partially gel-like solid.
Example 7: Ophthalmic Formulations Based on Polyethylene Glycol Series Vehicles
According to the formulation composition shown in the tables below, weigh the compound powder, add it to polyethylene glycol 400, and sonicate until dissolved or nearly dissolved (heat to 50°C if necessary). Add this to a Tris-HCl buffer solution containing hydroxypropyl-β-cyclodextrin, poloxamer 188, and gellan gum (or other viscosity modifier), vortex to mix, and prepare into an eye drop formulation.

Data set [4] in a line: Plasma and ocular tissue distribution after single ocular administration in Dutch Belted rabbits (Example 6). To be noted: single eye drop 1 mg/mL (0.05 mg/eye, 50 µL/eye), 0.5, 4 or 8 hours. The data set is classed as in vivo. An excerpt:
Detection of Plasma and Ocular Tissue Distribution of Compounds after Single Ocular Administration in Dutch Belted Rabbits
Age-related macular degeneration and diabetic retinopathy are associated with neovascularization in the posterior segment of the eye. A major problem with topical eye drops for treating posterior segment disorders is the inefficient delivery of the agent to the posterior segment sites due to the corneal and conjunctival barriers. Therefore, it is important to measure the distribution of compounds from ocular formulations in several major ocular tissues. […] This experiment used Dutch Belted rabbits. […]
Male Dutch Belted rabbits used in this experiment were purchased from Pizhou Dongfang Breeding Co., Ltd., with animal weights ranging from 1.5 to 2.5 kg. […] All prepared dosing formulations were freshly prepared on the day of administration, sampled, and the actual concentration of the dosing formulation was determined.
On the day of the experiment, animals were administered 1 mg/mL (0.05 mg/eye, 50 µL/eye). […] The concentrations of each analyte in rabbit ocular tissues and plasma obtained in this experiment were determined using an LC-MS/MS analytical method. […] BLOQ (Below the Limit of Quantification) is the lowest analyte concentration that can be quantified with acceptable precision and accuracy. […]

For data set [5] the following is noted: background statement on the known drug; cited from earlier work.

pIC50: −log10 of the molar value. In brackets after ≈: the same amount, converted by molar mass. Entries after “also recorded” stand apart in the source; their conditions may differ.

T2 sequence (P35968 20-1356): as above
T1 sequence (P00533 25-1210): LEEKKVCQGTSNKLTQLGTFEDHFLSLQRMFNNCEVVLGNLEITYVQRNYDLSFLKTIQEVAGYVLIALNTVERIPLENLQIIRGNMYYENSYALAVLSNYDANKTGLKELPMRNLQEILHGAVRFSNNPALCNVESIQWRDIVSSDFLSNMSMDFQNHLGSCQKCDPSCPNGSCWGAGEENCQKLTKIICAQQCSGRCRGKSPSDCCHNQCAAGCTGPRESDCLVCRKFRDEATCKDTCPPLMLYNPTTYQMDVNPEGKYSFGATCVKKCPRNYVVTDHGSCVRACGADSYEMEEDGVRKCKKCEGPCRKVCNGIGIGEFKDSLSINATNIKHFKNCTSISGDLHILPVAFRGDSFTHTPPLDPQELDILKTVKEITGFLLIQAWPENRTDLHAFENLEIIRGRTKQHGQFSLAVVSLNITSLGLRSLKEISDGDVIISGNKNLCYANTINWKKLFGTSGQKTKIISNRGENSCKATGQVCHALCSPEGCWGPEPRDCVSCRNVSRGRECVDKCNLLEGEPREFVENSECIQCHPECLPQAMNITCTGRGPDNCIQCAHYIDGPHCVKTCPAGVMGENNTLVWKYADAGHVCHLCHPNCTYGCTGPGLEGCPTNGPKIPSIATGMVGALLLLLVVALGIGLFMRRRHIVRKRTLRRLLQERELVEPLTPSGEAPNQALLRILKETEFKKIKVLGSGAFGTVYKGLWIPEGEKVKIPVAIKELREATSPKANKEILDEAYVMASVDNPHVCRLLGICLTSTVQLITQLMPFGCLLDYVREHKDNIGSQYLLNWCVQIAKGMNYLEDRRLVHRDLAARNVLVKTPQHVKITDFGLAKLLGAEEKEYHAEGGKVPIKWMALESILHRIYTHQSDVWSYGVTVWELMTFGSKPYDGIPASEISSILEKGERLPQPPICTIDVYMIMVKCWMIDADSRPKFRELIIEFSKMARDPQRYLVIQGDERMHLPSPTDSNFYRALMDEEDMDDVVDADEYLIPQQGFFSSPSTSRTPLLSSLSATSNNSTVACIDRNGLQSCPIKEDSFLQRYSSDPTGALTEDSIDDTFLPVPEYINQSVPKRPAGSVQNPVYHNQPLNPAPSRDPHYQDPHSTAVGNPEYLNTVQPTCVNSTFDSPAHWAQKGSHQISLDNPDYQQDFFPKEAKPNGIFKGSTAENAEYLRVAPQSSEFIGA

The pIC50 is the negative decadic logarithm of the IC50, by convention in mol/L. By solubility is commonly meant the concentration that dissolves in the medium under given conditions. The term fraction unbound denotes free concentration divided by total concentration. Low values mean extensive binding, high ones weak binding. Consider `CCNC(=O)c1cc(F)ccc1Sc1ccc2c(/C=C/c3ccc(CN(CC)CC)cn3)n[nH]c2c1` [Compound I-88], for which the pIC50 on EGFR is 4.22 to 5.22; on VEGFR2, 8.00 to 9.00; in data set [2] it was no less than 9.00. Further, the solubility at 8 h in data set [1] (thermodynamic solubility, room temperature, 8 hours shaking, buffers pH 2.0, 6.5, 7.4 used, pH of the tabulated value not given) was 546 µg/mL (≈ 1080 µM). This compound also displayed a fraction unbound at 2 h, 2 µM in the data set on melanin greater than 0.05.
With `CCN(CC)CCc1ccc(/C=C/c2n[nH]c3cc(Sc4ccccc4C(=O)NC4CC4)ccc23)nc1` [Compound I-77, N-cyclopropyl-2-({3-[(E)-2-{5-[2-(diethylamino)ethyl]pyridin-2-yl}ethenyl]-1H-indazol-6-yl}sulfanyl)benzamide], the values for the pIC50 (at EGFR; on VEGFR2; in data set [2]) were 4.22 to 5.22, no less than 9.00 and no less than 9.00, respectively. In addition, the fraction unbound at 2 h, 2 µM in the data set on melanin was 0.01 to 0.05. Also, in data set [3], the “State Description: pH” value was roughly 5.5. For the same compound, the “State Description: state” value in data set [3] is given as “gel”.
The term solubility (thermodynamic) denotes the concentration in solution at equilibrium with solid. Consider `CNC(=O)c1ccccc1Sc1ccc2c(/C=C/c3ccccn3)n[nH]c2c1` [Axitinib], for which the “drug concentration in retina” value in data set [4] is given as “below the lower limit of quantification; also recorded: below BLOQ”. In addition, the solubility in data set [5] is less than 2 µg/mL. The compound further registered a thermodynamic solubility at 8 h in data set [1] (positive compound) of less than 2 µg/mL.
